Where “and” joins values, the source holds several entries; their conditions need not be identical. Equal entries are not always repeated. Where two headings read alike, the source gives them in different places.
Assays:
[1] = DLS, 0.1 mg/mL cyclodextrin in water
Method: A 50 μL aliquot of the stock solution (0.5 mg of cyclodextrin) was transferred to a glass vial. The solvent was evaporated slowly in order to form a thin film of cyclodextrin on the surface of the glass. Millipore water (5 mL) was then used to hydrate the film giving a cyclodextrin solution with a concentration of 0.1 mg/mL. The vial was capped and placed in an oven for 90 minutes at 60° C. The cyclodextrin solutions were then filtered through a 0.45 μm Gelman Acrodisk syringe filter into a fluorimeter cuvette to remove any particles and macro aggregates. DLS investigations of these solutions were carried out using a Malvern Autosizer 4700 equipped with an Innova 70 laser (488 nm) and a photomultiplier at an angle of 90°.

Cos-7 cells = conditions: cyclodextrin:DNA mass ratios of 10, 15 and 20, 1 μg DNA, FIG. 3
Method: The plasmid DNA used for the transfection studies was the pGL3luc plasmid. This plasmid contains the gene that encodes for the firefly luciferase enzyme which allows measurement of gene expression levels in cells.
The cyclodextrin was dissolved in chloroform to a concentration of 1 mg/mL. A slow stream of nitrogen was passed over the solution to remove solvent. The cyclodextrin was then reconstituted with a plasmid DNA solution to give a final cyclodextrin concentration of 1 mg/mL. The DNA concentration used depended on the ratio of cyclodextrin:DNA being studied. This cyclodextrin:DNA solution was then sonicated for 1 hour to facilitate size reduction.
Cos-7 cells were seeded at a density of 30,000 cells per well and grown in 24 well plates in media for 20-24 hours. Prior to transfection studies, the cells were rinsed with serum-free media and then incubated in serum-free media for 1 hour. […] DNA complexes were prepared in a final volume of 100 μL so that 1 μg of DNA complexed with the vectors at the desired mass ratio. This was then added to 400 μL of serum-free media and cells which was left at 37° C. for 4 hours. […] Luciferase expression was then determined using a luciferase assay kit (Promega USA) and results were expressed as Relative Light Units (RLU) of luciferase per pg of protein (Bradford assay). […]

Question: For CCCCCCCCOC(=O)CCSCCCO[C@H]1[C@H]2O[C@H]3[C@H](O)[C@@H](OCCCSCCC(=O)OCCCCCCCC)[C@@H](O[C@H]4[C@H](O)[C@@H](OCCCSCCC(=O)OCCCCCCCC)[C@@H](O[C@H]5[C@H](O)[C@@H](OCCCSCCC(=O)OCCCCCCCC)[C@@H](O[C@H]6[C@H](O)[C@@H](OCCCSCCC(=O)OCCCCCCCC)[C@@H](O[C@H]7[C@H](O)[C@@H](OCCCSCCC(=O)OCCCCCCCC)[C@@H](O[C@H]8[C@H](O)[C@@H](OCCCSCCC(=O)OCCCCCCCC)[C@@H](O[C@@H]([C@@H]1O)[C@@H](CSCCN)O2)O[C@@H]8CSCCN)O[C@@H]7CSCCN)O[C@@H]6CSCCN)O[C@@H]5CSCCN)O[C@@H]4CSCCN)O[C@@H]3CSCCN.O=C(O)C(F)(F)F [heptakis[6-(2′-aminoethylthio)-2-O-octyloxycarbonylethylsulfanylpropyl]-β-cyclodextrin trifluoroacetic acid salt], which “Zaverage (nm)” value ([1]; Day 1, filtered 0.45 μm, angle 90°, trifluoroacetic acid salt) is on record?
Answer: Its value is 76 nm and 85 nm.

Question: And the Polydispersity ([1]; Day 7)?
Answer: Its Polydispersity is 0.251.

Question: And the “Zaverage (nm)” value ([1]; Day 7)?
Answer: The value was 82 nm.

Question: And the “transfection (luciferase expression) compared with naked DNA and DOTAP” value (Cos-7 cells)?
Answer: Its value is “greater than DNA on its own and greater than DOTAP”.

From patent US8852895B2, “Macrocyclic derivative and assemblies formed therefrom” (University College Dublin, National University of Ireland, priority 2008, dated 2014)
